How the values were obtained:
Assay in all cases: relative viability (nuclei count vs DMSO), 5 days (fraction); higher = more cells survive
IU1-47 + Trametinib = compound: CC1=CC(=C(N1C2=CC=C(C=C2)Cl)C)C(=O)CN3CCCCC3 [IU1-47] + CC(=O)Nc1cccc(-n2c(=O)n(C3CC3)c(=O)c3c(Nc4ccc(I)cc4F)n(C)c(=O)c(C)c32)c1 [Trametinib] (partner 0.02 µM)
How it was run: (§1)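 For relative viability, nuclei counts in treated wells were divided by those in vehicle wells. Lung cancer cell lines had been pin-tool dosed in 1536-well plates the day after seeding and cultured for 5 days, then fixed and stained in one step (final 0.05% Triton X-100, 1% formaldehyde, 1 ug/ml Hoechst) and imaged at 4×. Doses were one drug alone or a fixed anchor-drug dose plus five library-drug doses (not always all listed) in √10 steps, and values are duplicate-plate medians.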

IU1-47 + Pictilisib = compound: CC1=CC(=C(N1C2=CC=C(C=C2)Cl)C)C(=O)CN3CCCCC3 [IU1-47] + CS(=O)(=O)N1CCN(Cc2cc3nc(-c4cccc5[nH]ncc45)nc(N4CCOCC4)c3s2)CC1 [Pictilisib] (partner 1 µM)
How it was run: as §1

IU1-47 + AZD7762 = compound: CC1=CC(=C(N1C2=CC=C(C=C2)Cl)C)C(=O)CN3CCCCC3 [IU1-47] + NC(=O)Nc1cc(-c2cccc(F)c2)sc1C(=O)N[C@H]1CCCNC1 [AZD7762] (partner 0.2 µM)
How it was run: as §1

FG-4592 + Phenformin = compound: Cc1nc(C(=O)NCC(=O)O)c(O)c2ccc(Oc3ccccc3)cc12 [FG-4592] + N=C(N)NC(=N)NCCc1ccccc1 [Phenformin] (partner 250 µM)
How it was run: as §1

| Cell Line | relative viability (IU1-47 + Trametinib; first compound 0.08 µM) | relative viability (IU1-47 + Trametinib; first compound 0.253 µM) | relative viability (IU1-47 + Trametinib; first compound 0.8 µM) | relative viability (IU1-47 + Trametinib; first compound 2.53 µM) | relative viability (IU1-47 + Trametinib; first compound 8 µM) | relative viability (IU1-47 + Pictilisib; first compound 0.08 µM) | relative viability (IU1-47 + Pictilisib; first compound 0.253 µM) | relative viability (IU1-47 + Pictilisib; first compound 0.8 µM) | relative viability (IU1-47 + Pictilisib; first compound 2.53 µM) | relative viability (IU1-47 + Pictilisib; first compound 8 µM) | relative viability (IU1-47 + AZD7762; first compound 0.08 µM) | relative viability (IU1-47 + AZD7762; first compound 0.253 µM) | relative viability (IU1-47 + AZD7762; first compound 0.8 µM) | relative viability (IU1-47 + AZD7762; first compound 2.53 µM) | relative viability (IU1-47 + AZD7762; first compound 8 µM) | relative viability (FG-4592 + Phenformin; first compound 0.08 µM) | relative viability (FG-4592 + Phenformin; first compound 0.253 µM) | relative viability (FG-4592 + Phenformin; first compound 0.8 µM) | relative viability (FG-4592 + Phenformin; first compound 2.53 µM) | relative viability (FG-4592 + Phenformin; first compound 8 µM) |
| --- | --- | --- | --- | --- | --- | --- | --- | --- | --- | --- | --- | --- | --- | --- | --- | --- | --- | --- | --- | --- |
| NCI-H1975 | 0.337 | 0.324 | 0.464 | 0.328 | 0.322 | 0.274 | 0.293 | 0.305 | 0.281 | 0.256 | 0.698 | 0.766 | 0.728 | 0.797 | 0.756 | 0.384 | 0.399 | 0.369 | 0.384 | 0.396 |
| CAL-12T | 0.353 | 0.368 | 0.309 | 0.289 | 0.32 | 0.448 | 0.392 | 0.537 | 0.413 | 0.396 | 0.622 | 0.695 | 0.695 | 0.601 | 0.629 | 0.593 | 0.51 | 0.56 | 0.546 | 0.542 |
| NCI-H1623 | – | – | – | – | – | – | – | – | – | – | – | – | – | – | – | 0.607 | 0.609 | 0.595 | 0.517 | 0.542 |
| HCC-44 | 1.08 | 1.1 | 1.04 | 1.08 | 0.992 | 0.551 | 0.603 | 0.665 | 0.672 | 0.593 | 1 | 1.07 | 1.04 | 0.959 | 1.04 | 0.107 | 0.184 | – | 0.145 | 0.151 |
| EKVX | 0.369 | 0.374 | 0.375 | – | 0.296 | 0.555 | 0.549 | 0.459 | 0.487 | 0.463 | 0.894 | 0.866 | 0.725 | – | 0.756 | 0.205 | 0.237 | 0.224 | 0.221 | 0.262 |
| NCI-H1651 | 0.885 | 0.856 | 0.806 | 0.824 | 0.811 | 0.526 | 0.575 | 0.573 | – | 0.468 | 0.479 | 0.498 | 0.529 | 0.316 | 0.418 | 0.32 | 0.316 | 0.335 | 0.355 | 0.421 |
| NCI-H1944 | 0.453 | 0.473 | 0.414 | 0.386 | 0.415 | 0.361 | 0.371 | 0.335 | – | 0.356 | 0.794 | 0.612 | 0.601 | 0.445 | 0.464 | 0.194 | 0.187 | 0.185 | 0.18 | 0.2 |
| NCI-H1703 | – | – | – | – | – | 0.254 | 0.255 | 0.218 | 0.32 | 0.25 | 0.0968 | 0.172 | 0.133 | – | 0.112 | – | – | – | – | – |
| Calu-6 | – | – | – | – | – | 1.13 | 1.07 | 0.861 | 0.972 | 0.856 | – | – | – | – | – | – | – | – | – | – |
| EBC-1 | – | – | – | – | – | 0.45 | 0.387 | 0.416 | 0.501 | 0.336 | – | – | – | – | – | – | – | – | – | – |
| SW 1573 | 0.656 | 0.59 | 0.683 | 0.721 | 0.489 | 0.524 | 0.563 | 0.391 | 0.553 | 0.471 | – | – | – | – | – | 0.388 | 0.346 | 0.435 | 0.372 | 0.35 |
| A-427 | 0.833 | 0.879 | 0.773 | 0.749 | 0.636 | 0.736 | 0.84 | 0.789 | – | 0.632 | 0.747 | 0.908 | 0.596 | 0.82 | 0.562 | 0.27 | 0.313 | 0.341 | 0.335 | 0.414 |
| NCI-H2347 | 0.258 | 0.282 | 0.3 | 0.304 | 0.302 | 0.505 | 0.651 | 0.446 | 0.448 | 0.457 | 0.78 | 0.845 | 0.865 | 0.79 | 0.621 | 0.284 | – | 0.376 | 0.5 | 0.441 |
| NCI-H1355 | 0.432 | 0.441 | 0.386 | – | 0.35 | 0.489 | 0.457 | 0.363 | 0.251 | 0.415 | 0.798 | 0.957 | 0.844 | – | 0.584 | 0.378 | 0.422 | 0.358 | 0.431 | 0.449 |
| NCI-H358 | 0.129 | 0.13 | 0.128 | 0.135 | 0.121 | 0.287 | 0.323 | 0.352 | – | 0.366 | 0.576 | 0.521 | 0.5 | 0.405 | 0.435 | 0.361 | 0.293 | 0.372 | 0.324 | 0.5 |
| PC-3 [JPC-3] | 0.771 | 0.686 | 0.73 | 0.715 | 0.791 | 0.756 | 0.745 | 0.852 | – | 0.734 | 0.72 | 0.856 | 0.866 | 0.828 | 0.741 | 0.489 | 0.457 | 0.531 | 0.462 | 0.486 |
| NCI-H2228 | 0.614 | 0.415 | 0.699 | 0.454 | 0.399 | 0.497 | 0.506 | 0.28 | 0.28 | 0.229 | – | – | – | – | – | 0.358 | 0.221 | 0.225 | 0.348 | 0.24 |
| HOP-62 | 0.4 | 0.332 | 0.387 | 0.383 | 0.348 | 0.966 | 0.891 | 0.818 | 0.494 | 0.524 | 0.488 | 0.712 | 0.619 | 0.493 | 0.608 | 0.601 | 0.654 | 0.672 | 0.657 | 0.665 |
| HARA | 0.802 | – | 0.929 | 0.628 | 0.774 | 0.407 | 0.504 | 0.371 | 0.509 | 0.336 | 0.394 | – | 0.359 | 0.176 | 0.273 | 0.412 | 0.394 | 0.512 | 0.509 | 0.477 |
| NCI-H838 | 0.521 | 0.472 | 0.581 | 0.501 | 0.53 | 0.391 | 0.462 | 0.485 | 0.436 | 0.425 | 0.931 | 0.99 | 0.917 | 0.925 | 0.876 | 0.545 | 0.581 | 0.5 | 0.505 | 0.583 |
